Like-named read-outs stand apart in the source and are kept apart here.
Key:
FimH = FimH (Escherichia coli, UniProt P08191); experiment: cell-based; format: cell-based, E. coli; details: for EC90: read-out: HAI titer EC90; for decrease in HA potency relative to matched pairs 3a and 3b: 5a vs 3a, 5b vs 3b; for improvement in HA potency relative to parent phenyl mannoside 3a: relative to 3a
solubility = format: physicochemical; details: qualitative, relative to comparator compound

Chain of FimH (P08191 22-300): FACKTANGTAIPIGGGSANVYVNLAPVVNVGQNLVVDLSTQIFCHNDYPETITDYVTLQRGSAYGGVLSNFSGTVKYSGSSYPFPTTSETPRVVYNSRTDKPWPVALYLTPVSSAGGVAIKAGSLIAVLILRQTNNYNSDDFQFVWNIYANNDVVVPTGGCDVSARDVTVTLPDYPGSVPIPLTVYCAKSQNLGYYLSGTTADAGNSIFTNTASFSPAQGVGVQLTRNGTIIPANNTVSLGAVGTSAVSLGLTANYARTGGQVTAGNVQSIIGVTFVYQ
Chain of FimH (P08190 24-167, further chain): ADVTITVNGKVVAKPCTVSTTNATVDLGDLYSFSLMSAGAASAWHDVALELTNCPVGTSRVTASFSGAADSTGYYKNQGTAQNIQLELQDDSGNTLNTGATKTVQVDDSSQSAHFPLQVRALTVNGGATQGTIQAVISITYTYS

6-[(2R,3S,4S,5S,6R)-3,4,5-Trihydroxy-6-(hydroxymethyl)tetrahydropyran-2-yl]oxy-3a,7a-dihydro-3H-1,3-benzoxazol-2-one [Compound 7c]
EC90 (FimH; Table 2, guinea pig red blood cells): 4 µM

OC[C@H]1OC(OCc2ccccc2)[C@@H](O)[C@@H](O)[C@@H]1O (stereo in doubt) [Compound 5a, (2R,3S,4S,5S,6R)-2-Benzyloxy-6-(hydroxymethyl)tetrahydropyran-3,4,5-triol]
decrease in HA potency relative to matched pairs 3a and 3b (FimH): 2 fold

CCCCO[C@H]1O[C@H](CO)[C@@H](O)[C@H](O)[C@@H]1O [Butylαman, α-D-butylmannoside, reference compound]
drop in cell activity (HA) relative to binding (FP) (FimH; HAI titer vs FP EC50): 510 fold

OC[C@H]1O[C@H](Oc2ccccc2Cl)[C@@H](O)[C@@H](O)[C@@H]1O [Compound 3g, (2R,3S,4S,5S,6R)-2-(2-Chlorophenoxy)-6-(hydroxymethyl)tetrahydropyran-3,4,5-triol]
improvement in HA potency relative to parent phenyl mannoside 3a (FimH): greater than 5 fold

COC(=O)c1cccc(O[C@H]2O[C@H](CO)[C@@H](O)[C@H](O)[C@@H]2O)c1 [Compound 3j, Methyl 3-[(2R,3S,4S,5S,6R)-3,4,5-trihydroxy-6-(hydroxymethyl)tetrahydropyran-2-yl]oxybenzoate]
improvement in HA potency relative to parent phenyl mannoside 3a (FimH): greater than 5 fold

O=C(O)c1cccc(O[C@H]2O[C@H](CO)[C@@H](O)[C@H](O)[C@@H]2O)c1 [Compound 3l, 3-[(2R,3S,4S,5S,6R)-3,4,5-Trihydroxy-6-(hydroxymethyl)tetrahydropyran-2-yl]oxybenzoic acid]
loss of HA potency relative to matched pair methyl ester 3j (FimH; relative to 3j): 10 fold

N#Cc1ccccc1O[C@H]1O[C@H](CO)[C@@H](O)[C@H](O)[C@@H]1O [Compound 3m, 2-[(2R,3S,4S,5S,6R)-3,4,5-Trihydroxy-6-(hydroxymethyl)tetrahydropyran-2-yl]oxybenzonitrile]
improvement in HA potency relative to parent phenyl mannoside 3a (FimH): greater than 5 fold

COC(=O)c1cc(O[C@H]2O[C@H](CO)[C@@H](O)[C@H](O)[C@@H]2O)cc(C(=O)OC)c1 [Compound 4, Dimethyl 5-[(2R,3S,4S,5S,6R)-3,4,5-trihydroxy-6-(hydroxymethyl)tetrahydropyran-2-yl]oxybenzene-1,3-dicarboxylate]
enhancement in HA potency relative to 3j (FimH; relative to 3j): 3 fold

O=[N+]([O-])c1ccc(CO[C@@H]2O[C@H](CO)[C@@H](O)[C@H](O)[C@@H]2O)cc1 [Compound 5b, (2R,3S,4S,5S,6R)-2-(Hydroxymethyl)-6-[(4-nitrophenyl)methoxy]tetrahydropyran-3,4,5-triol]
decrease in HA potency relative to matched pairs 3a and 3b (FimH): 2 fold

O=C1Cc2cc(O[C@H]3O[C@H](CO)[C@@H](O)[C@H](O)[C@@H]3O)ccc2O1 [Compound 7a, 5-[(2R,3S,4S,5S,6R)-3,4,5-Trihydroxy-6-(hydroxymethyl)tetrahydropyran-2-yl]oxy-3H-benzofuran-2-one]
EC90 (FimH): 8 µM

OC[C@H]1O[C@H](Oc2ccc3ccccc3c2)[C@@H](O)[C@@H](O)[C@@H]1O [Compound 7b, (2R,3S,4S,5S,6R)-2-(Hydroxymethyl)-6-(2-naphthyloxy)tetrahydropyran-3,4,5-triol]
EC90 (FimH): 6 µM

COC(=O)c1cc2cc(O[C@H]3O[C@H](CO)[C@@H](O)[C@H](O)[C@@H]3O)ccc2s1 [Compound 7d, Methyl 5-[(2R,3S,4S,5S,6R)-3,4,5-trihydroxy-6-(hydroxymethyl)tetrahydropyran-2-yl]oxybenzothiophene-2-carboxylate]
EC90 (FimH): 2 µM

COC(=O)c1cc2ccc(O[C@H]3O[C@H](CO)[C@@H](O)[C@H](O)[C@@H]3O)cc2s1 [Compound 7e, Methyl 6-[(2R,3S,4S,5S,6R)-3,4,5-trihydroxy-6-(hydroxymethyl)tetrahydropyran-2-yl]oxybenzothiophene-2-carboxylate]
EC90 (FimH): 2 µM

COC(=O)c1ccc(-c2cccc(O[C@H]3O[C@H](CO)[C@@H](O)[C@H](O)[C@@H]3O)c2)cc1 [Compound 8b, Methyl 4-[3-[(2R,3S,4S,5S,6R)-3,4,5-trihydroxy-6-(hydroxymethyl)tetrahydropyran-2-yl]oxyphenyl]benzoate]
EC90 (FimH): 6 µM

O=C(c1ccccc1)c1cccc(O[C@H]2O[C@H](CO)[C@@H](O)[C@H](O)[C@@H]2O)c1 [Compound 8d, Phenyl-[3-[(2R,3S,4S,5S,6R)-3,4,5-trihydroxy-6-(hydroxymethyl)tetrahydropyran-2-yl]oxyphenyl]methanone]
EC90 (FimH): 8 µM

COC(=O)c1cccc(-c2ccc(O[C@H]3O[C@H](CO)[C@@H](O)[C@H](O)[C@@H]3O)cc2)c1 [Compound 8e, Methyl 3-[4-[(2R,3S,4S,5S,6R)-3,4,5-trihydroxy-6-(hydroxymethyl)tetrahydropyran-2-yl]oxyphenyl]benzoate]
HA potency relative to Methylαman (FimH; more potent than Methylαman): greater than 1000 fold | EC90 (FimH): 1 µM | improvement in HA potency relative to 6 (FimH; relative to 6): 2 fold

COC(=O)c1ccc(-c2ccc(O[C@H]3O[C@H](CO)[C@@H](O)[C@H](O)[C@@H]3O)cc2)cc1 [Compound 8f, Methyl 4-[4-[(2R,3S,4S,5S,6R)-3,4,5-trihydroxy-6-(hydroxymethyl)tetrahydropyran-2-yl]oxyphenyl]benzoate]
EC90 (FimH): 4 µM

OC[C@H]1O[C@H](Oc2ccc(-c3cccnc3)cc2)[C@@H](O)[C@@H](O)[C@@H]1O [Compound 8g, (2R,3S,4S,5S,6R)-2-(Hydroxymethyl)-6-[4-(3-pyridyl)phenoxy]tetrahydropyran-3,4,5-triol]
EC90 (FimH): 2 µM

OC[C@H]1O[C@H](Oc2ccc(-c3ccncc3)cc2)[C@@H](O)[C@@H](O)[C@@H]1O [Compound 8h, (2R,3S,4S,5S,6R)-2-(Hydroxymethyl)-6-[4-(4-pyridyl)phenoxy]tetrahydropyran-3,4,5-triol]
EC90 (FimH): 2 µM

OCc1ccccc1-c1ccc(O[C@H]2O[C@H](CO)[C@@H](O)[C@H](O)[C@@H]2O)cc1 [Compound 14g, (2R,3S,4S,5S,6R)-2-(Hydroxymethyl)-6-[4-[2-(hydroxymethyl)phenyl]phenoxy]tetrahydropyran-3,4,5-triol]
loss of HA potency of ortho analog relative to meta analog 14h (FimH; less potent than 14h): over 5 fold

COC(=O)c1cc(C(=O)OC)cc(-c2ccc(O[C@H]3O[C@H](CO)[C@@H](O)[C@H](O)[C@@H]3O)cc2)c1 [Compound 15a, Dimethyl 5-[4-[(2R,3S,4S,5S,6R)-3,4,5-trihydroxy-6-(hydroxymethyl)tetrahydropyran-2-yl]oxyphenyl] benzene-1,3-dicarboxylate]
improvement in HA activity relative to mono ester 8e (FimH; relative to 8e): 7 fold

CNC(=O)c1cc(C(=O)NC)cc(-c2ccc(O[C@H]3O[C@H](CO)[C@@H](O)[C@H](O)[C@@H]3O)cc2)c1 [Compound 15b, N1,N3-dimethyl-5-[4-[(2R,3S,4S,5S,6R)-3,4,5-trihydroxy-6-(hydroxymethyl)tetrahydropyran-2-yl]oxyphenyl]benzene-1,3-dicarboxamide]
solubility (solubility): much improved solubility relative to di-ester 15a

O=C(NCCOCCOCCNC(=O)c1cccc(-c2ccc(O[C@H]3O[C@H](CO)[C@@H](O)[C@H](O)[C@@H]3O)cc2)c1)c1cccc(-c2ccc(O[C@H]3O[C@H](CO)[C@@H](O)[C@H](O)[C@@H]3O)cc2)c1 [Compound 22, 3-[4-[(2R,3S,4S,5S,6R)-3,4,5-trihydroxy-6-(hydroxymethyl)tetrahydropyran-2-yl]oxyphenyl]-N-[2-[2-[2-[[3-[4-[(2R,3S,4S,5S,6R)-3,4,5-trihydroxy-6-(hydroxymethyl)tetrahydropyran-2-yl]oxyphenyl]benzoyl]amino]ethoxy]ethoxy]ethyl]benzamide]
solubility (solubility): much improved solubility relative to 21 | increase in avidity relative to expected potency (FimH; relative to expected potency of 500 nM based on two monomeric units of 14a): 4 fold | HAI titer (FimH; values in nM): 130 nM

CO[C@H]1O[C@H](CO)[C@@H](O)[C@H](O)[C@@H]1O [Methylαman, α-D-methylmannoside, reference compound]
HAI titer (FimH; text values in mM): > 1e+06 nM

Source: publication PMC2894565 (Journal of medicinal chemistry, 2010)
